# Data taken from BindingDB's records for doi:10.1021/jm9707028 (Boehringer Ingelheim Pharmaceuticals, 1998).
# Key:
# Test in all cases: HIV-1 RT Assay
# [1] = target: T1, Gag-Pol polyprotein [600-1027,P835L]/[600-1155,P835L] (Human immunodeficiency virus 1, UniProt P03366, P835L)
# T1 construct: 600-1027; 600-1155
# [2] = target: T2, Gag-Pol polyprotein [600-1027,V705A]/[600-1155,V705A] (Human immunodeficiency virus 1, UniProt P03366, V705A)
# T2 construct: 600-1027; 600-1155
# [3] = target: T3, Gag-Pol polyprotein [600-1027,K702N]/[600-1155,K702N] (Human immunodeficiency virus 1, UniProt P03366, K702N)
# T3 construct: 600-1027; 600-1155
# [4] = target: T4, Gag-Pol polyprotein [600-1027,G789A]/[600-1155,G789A] (Human immunodeficiency virus 1, UniProt P03366, G789A)
# T4 construct: 600-1027; 600-1155
SMILES,IC50 [1] [nM],IC50 [2] [nM],IC50 [3] [nM],IC50 [4] [nM]
"CCN1c2ncc(CCc3ccncc3)cc2C(=O)N(C)c2ccc(Cl)nc21 [2,8-Substituted Dipyridodiazepinone 37]",110,550,120,30
"CCN1c2ncc(CCc3ccccc3)cc2C(=O)N(C)c2ccc(Cl)nc21 [2,8-Substituted Dipyridodiazepinone 36]",710,840,50,120
